Source: patent US10300014B2, “Nasolacrimal drainage system implants for drug therapy” (Mati Therapeutics Inc., priority 2006, dated 2019)
≈ marks a conversion by molar mass, not a printed value.

Legend:
eye [1] = details: cited from earlier work
[2] = in water at 25° C.; cited from earlier work
eye [3] = assay: sustained release doses of Bimatoprost, reduction in intraocular pressure; type: in vivo; details: sustained release 20 to 200 ng daily, 0.2 to 2% of the daily drop dosage
Experimental: Commercially available solution concentrations of Bimatoprost are 0.03% by weight, often delivered once per day. Although the sustained release amount of Bimatnoprost released each day can vary, a sustained release of […] per day corresponds to about 2% of the 15 μg of Bimatoprost applied with a single drop of a 0.03% solution.

[4] = topical drop, drug available to the eye; cited from earlier work

## CC(C)OC(=O)CCC/C=C\C[C@@H]1[C@@H](CC[C@@H](O)CCc2ccccc2)[C@H](O)C[C@@H]1O [Latanoprost]
Eye [1]; about 200 ng of drug remaining on the eye after a Xalatan drop (2.5 μg)
  duration of effective IOP lowering: at least 24 hours
Eye [1]; lowest doses of 12.5 μg/mL QD or 15 μg/mL BID, eye drops
  IOP reduction relative to that of the 50 μg/mL QD dose: 60-75%

## CCNC(=O)CCC/C=C\C[C@@H]1[C@@H](/C=C/[C@@H](O)CCc2ccccc2)[C@H](O)C[C@@H]1O [Bimatoprost]
[2]
  aqueous solubility: 300 µg/mL (≈ 722 µM)
Eye [3]
  reduction in intraocular pressure: at least some reduction in intraocular pressure

## CC(C)(C)NC[C@H](O)COc1nsnc1N1CCOCC1 [Timolol]
[4]
  bioavailability: 30-50%
